Here are results for 25 compounds from patent publication US4923882A, “Novel amine derivatives, salts thereof and an anti-ulcer agent containing the same” (Toyama Chemical Co., Ltd., priority 1982, dated 1990).

For assay [1], the system named is gastric acid secretion. The experiment in a line: Inhibitory effect on gastric acid secretion, perfused stomach preparation of anesthetized rat (histamine stimulated). The assay is classed as in vivo, Wistar strain rats. To be noted: intravenous; for ED100: Rattus norvegicus, cumulative, histamine 30 μg/kg/min, read-out: Dose for complete inhibition; for Duration: time from complete inhibition until pH of perfusate became 4. The method, then:
(i) Perfused stomach preparation of anesthetized rat [according to M. N. Ghosh and H. O. Schild: Brit. J. Pharmacol. 13, 54 (1958)]
Wistar strain rats (male, 200 to 250 g) starved for 18 hours were anesthetized with urethane and then subjected to laparotomy, after which the forestomach region of the stomach of each rat was incised. The whole interior of the stomach was sufficiently washed with physiological saline, and the cut edges were sutured. A silicon tube was inserted into the stomach to a length of about 5 mm from the duodenum side and fixed. Subsequently, the stomach was perfused with physiological saline adjusted to a pH of about 10 with an aqueous sodium hydroxide solution at a constant rate (1 ml/min) through an oral sonde, and the change in pH of the perfusate which had flowed out through the silicone tube was continuously recorded. During the perfusion, histamine (30 μg/kg/min) was continuously injected, as an agent for stimulating gastric acid secretion, through the femoral vein at a rate of 0.3 ml/min. Each drug was intravenously administered when the acid secretion became almost constant (pH 3.3±0.2), and cumulatively administered when the inhibition of acid secretion at each dose reached a plateau.
The number of experiments was three for each dose.

The subject of assay [2] is gastric acid secretion. The experiment in a line: Inhibitory effect on gastric acid secretion, pylorus ligation method (histamine). To be noted: Rattus norvegicus, oral, histamine 25 mg/kg s.c., read-out: Inhibition percentage (gastric acid secretion). The assay is classed as in vivo, Wistar strain rats. The method, then: Five to six Wistar strain rats (male, 190 to 230 g) per group were starved for 35 hours, after which each drug was orally administered, and after 2 hours, the pylorus of each rat was ligated under ether anesthesia. […] After 3 hours, each rat was killed, after which the cardiac portion was ligated, and the stomach was removed. After 1 ml of distilled water was injected into the stomach, the gastric juice was collected by centrifugation and its volume was measured. The acidity of the gastric juice was measured by titrating 1 ml of the gastric juice with a 0.1N aqueous sodium hydroxide solution, taking pH 7.0 as the end-point. Physiological saline was administered to a control group.
The inhibition percentage of gastric acid secretion was determined from the following equation: [formula]

Where only a bound is given, the exact number is not on record here.

In the case of `N#CNC(=NCC(O)c1ccccc1)NCCSCc1csc(NC(=N)N)n1` (stereo not drawn) [compound 1, N-cyano-N'-{2-[(2-guanidino-4-thiazolyl)methylthio]ethyl}-N"-(β-hydroxyphenethyl)guanidine], in the assay on gastric acid secretion [1], the ED100 amounted to 0.3 mg/kg and the Duration is recorded as more than 210 min.

`NC(N)=Nc1nc(CSCCNC(=C[N+](=O)[O-])NCC(O)c2ccccc2)cs1` (stereo not shown) [compound 2]: in the assay with gastric acid secretion [1], the ED100 amounted to 0.1 mg/kg and the Duration is listed as more than 160 min. Turning to `CN(C)Cc1ccc(CSCCNC(=C[N+](=O)[O-])NCC(O)c2cccnc2)o1` (stereo not shown) [compound 8, N-{2-[[5-(dimethylamino)methyl-2-furyl]methylthio]ethyl}-N'-[2-hydroxy-2-(3-pyridyl)ethyl]-2-nitro-1,1-ethenediamine], in the assay with gastric acid secretion [1], the ED100 stood at 0.3 mg/kg and the Duration came to 200 min. The matching figures for `Cc1cc(CSCCNC(=C[N+](=O)[O-])NCC(O)c2ccc(O)cc2)sc1CN(C)C` (stereo not shown) [compound 10, N-{2-[[5-(dimethylamino)methyl-4-methyl-2-thienyl]methylthio]ethyl}-N'-[2-hydroxy-2-(4-hydroxyphenyl)ethyl]-2-nitro-1,1-ethenediamine]: 0.18 mg/kg and 175 min. As to `O=[N+]([O-])C=C(NCCCOc1cccc(CN2CCCCC2)c1)NCC(O)c1cccnc1` (stereo not shown) [compound 19, N-[2-hydroxy-2-(3-pyridyl)ethyl]-2-nitro-N'-[3-(3-piperidinomethylphenoxy)propyl]-1,1-ethenediamine], in the assay on gastric acid secretion [1], the ED100 stood at 0.1 mg/kg and the Duration came to 164 min. On to `O=[N+]([O-])C=C(NCCCOc1cccc(CN2CCCCC2)c1)NCC(O)c1ccc([N+](=O)[O-])cc1` (stereo not shown) [compound 20, N-[2-hydroxy-2-(4-nitrophenyl)ethyl]-2-nitro-N'-[3-(3-piperidinomethylphenoxy)propyl]-1,1-ethenediamine], for which, in the assay on gastric acid secretion [1], the Duration is more than 210 min. Take `CS(=O)(=O)NC(=NCCCOc1cccc(CN2CCCCC2)c1)NCC(O)c1ccccc1` (stereo not drawn) [compound 21, N-(β-hydroxyphenethyl)-N'-methanesulfonyl-N"-[3-(3-piperidinomethylphenoxy)propyl]guanidine]: in the assay on gastric acid secretion [1], the ED100 came out at 0.1 mg/kg and the Duration is on record as more than 240 min. The matching figures for `CN(C)Cc1ccc(CSCCNC(=C[N+](=O)[O-])NC[C@@H](O)c2ccc(O)cc2)o1` [compound 22, N-{2-[[5-(dimethylamino)methyl-2-furyl]methylthio]ethyl}-N'-[S(+)-2-hydroxy-2-(4-hydroxyphenyl)ethyl]-2-nitro-1,1-ethenediamine]: 0.04 mg/kg and 136 min. Take `COc1cccc(C(O)CNC(=C[N+](=O)[O-])NCCSCc2ccc(CN(C)C)o2)c1` (stereo not shown) [compound 23, N-{2-[[5-(dimethylamino)methyl-2-furyl]methylthio]ethyl}-N'-[2-hydroxy-2-(3-methoxyphenyl)ethyl]-2-nitro-1,1-ethenediamine]: in the assay on gastric acid secretion [1], the ED100 stood at 0.15 mg/kg and the Duration was determined as 242 min. With `CSc1ccc(C(O)CNC(=C[N+](=O)[O-])NCCSCc2ccc(CN(C)C)o2)cc1` (stereo not shown) [compound 24, N-{2-[[5-(dimethylamino)methyl-2-furyl]methylthio]ethyl}-N'-[2-hydroxy-2-(4-methylthiophenyl)ethyl]-2-nitro-1,1-ethenediamine], in the assay on gastric acid secretion [1], the ED100 came to 0.2 mg/kg and the Duration is given as more than 240 min. As for `CN(C)Cc1ccc(CSCCNC(=C[N+](=O)[O-])NCC(O)c2ccc(F)c(F)c2)o1` (stereo not shown) [compound 25, N-{2-[[5-(dimethylamino)methyl-2-furyl]methylthio]ethyl}-N'-[2-(3,4-difluorophenyl)-2-hydroxyethyl]-2-nitro-1,1-ethenediamine], in the assay on gastric acid secretion [1], the ED100 turned out to be 0.1 mg/kg and the Duration is more than 240 min.

In the case of `CSc1ccc(C(O)CNC(=C[N+](=O)[O-])NCCCOc2cccc(CN3CCCCC3)c2)cc1` (stereo not shown) [compound 26, N-[2-hydroxy-2-(4-methylthiophenyl)ethyl]-2-nitro-N'-[3-(3-piperidinomethylphenoxy)propyl]-1,1-ethenediamine], in the assay with gastric acid secretion [1], the ED100 turned out to be 0.3 mg/kg and the Duration was more than 240 min. `O=[N+]([O-])C=C(NCCCOc1cccc(CN2CCCCC2)c1)NCC(O)c1cccc(C(F)(F)F)c1` (stereo not shown) [compound 27, N-[2-hydroxy-2-(3-trifluoromethylphenyl)ethyl]-2-nitro-N'-[3-(3-piperidinomethylphenoxy)propyl]-1,1-ethenediamine]: in the assay on gastric acid secretion [1], the ED100 came to 0.3 mg/kg and the Duration is reported as more than 210 min. `Cc1cc(CSCCNC(=C[N+](=O)[O-])NCC(O)c2cccc(Cl)c2)sc1CN(C)C` (stereo not shown) [compound 28, N-[2-(3-chlorophenyl)-2-hydroxyethyl]-N'-{2-[[5-(dimethylamino)methyl-4-methyl-2-thienyl]methylthio]ethyl}-2-nitro-1,1-ethenediamine]: in the assay on gastric acid secretion [1], the ED100 was found to be 0.1 mg/kg and the Duration was 205 min. `O=[N+]([O-])C=C(NCCCOc1cccc(CN2CCCCC2)c1)NCC(O)c1ccc(F)c(F)c1` (stereo not shown) [compound 30, N-[2-(3,4-difluorophenyl)-2-hydroxyethyl]-2-nitro-N'-[3-(3-piperidinomethylphenoxy)propyl]1,1-ethenediamine]: in the assay on gastric acid secretion [1], the ED100 is 0.15 mg/kg and the Duration was more than 240 min. As to `CCc1cccc(C(O)CNC(=C[N+](=O)[O-])NCCSCc2cc(C)c(CN(C)C)s2)c1` (stereo not shown) [compound 31, N-{2-[[5-(dimethylamino)methyl-4-methyl-2-thienyl]methylthio]ethyl}-N'-[2-(3-ethylphenyl)-2-hydroxyethyl]-2-nitro-1,1-ethenediamine], in the assay with gastric acid secretion [1], the ED100 was 0.3 mg/kg and the Duration amounted to 226 min. With `Cc1cc(CSCCNC(=C[N+](=O)[O-])NCC(O)c2c(F)cccc2F)sc1CN(C)C` (stereo not shown) [compound 34, N-{2-[[5-(dimethylamino)methyl-4-methyl-2-thienyl]methylthio]ethyl}-N'-[2-(2,6-difluorophenyl)-2-hydroxyethyl]-2-nitro-1,1-ethenediamine], in the assay on gastric acid secretion [2], the inhibition in vivo at 3 mg/kg came to 71%. With `Cc1cc(CSCCNC(=C[N+](=O)[O-])NCC(O)c2ccc(F)cc2F)sc1CN(C)C` (stereo not shown) [compound 35, N-{2-[[5-(dimethylamino)methyl-4-methyl-2-thienyl]methylthio]ethyl}-N'-[2-(2,4-difluorophenyl)-2-hydroxyethyl]-2-nitro-1,1-ethenediamine], in the assay on gastric acid secretion [2], the inhibition in vivo at 1 mg/kg worked out at 47%. For `O=[N+]([O-])C=C(NCCCOc1cccc(CN2CCCCC2)c1)NCC(O)c1ccccc1F` (stereo not shown) [compound 36, N-[2-(2-fluorophenyl)-2-hydroxyethyl]-2-nitro-N'-[3-(3-piperidinomethylphenoxy)propyl]-1,1-ethenediamine], the inhibition in vivo at 3 mg/kg with gastric acid secretion [2] is 85%. Consider `COc1ccc(C(O)CNC(=C[N+](=O)[O-])NCCSCc2ccc(CN(C)C)o2)cc1` (stereo not shown) [compound 37, N-{2-[[5-(dimethylamino)methyl-2-furyl]methylthio]ethyl}-N'-[2-hydroxy-2-(4-methoxyphenyl)ethyl]-2-nitro-1,1-ethenediamine], for which the inhibition in vivo at 3 mg/kg in the assay with gastric acid secretion [2] came out at 77%. For the compound `CN(C)Cc1ccc(CSCCNC(=C[N+](=O)[O-])NCC(O)c2ccc(F)cc2)o1` (stereo not shown) [compound 38, N-{2-[[5-(dimethylamino)methyl-2-furyl]methylthio]ethyl}-N'-[2-(4-fluorophenyl)-2-hydroxyethyl]-2-nitro-1,1-ethenediamine], the inhibition in vivo at 1 mg/kg in the assay on gastric acid secretion [2] amounted to 41%. As for `Cc1ccccc1C(O)CNC(=C[N+](=O)[O-])NCCSCc1ccc(CN(C)C)o1` (stereo not shown) [compound 39, N-{2-[[5-(dimethylamino)methyl-2-furyl]methylthio]ethyl}-N'-[2-hydroxy-2-(2-methylphenyl)ethyl]-2-nitro-1,1-ethenediamine], in the assay on gastric acid secretion [2], the inhibition in vivo at 3 mg/kg amounted to 90%. Take `Cc1cc(CSCCNC(=C[N+](=O)[O-])NCC(O)c2ccc(F)cc2)sc1CN(C)C` (stereo not shown) [compound 41, N-{2-[[5-(dimethylamino)methyl-4-methyl-2-thienyl]methylthio]ethyl}-N'-[2-(4-fluorophenyl)-2-hydroxyethyl]-2-nitro-1,1-ethenediamine]: the inhibition in vivo at 1 mg/kg in the assay with gastric acid secretion [2] was 65%. As to `O=[N+]([O-])C=C(NCCCOc1cccc(CN2CCCCC2)c1)NCC(O)c1cccc(F)c1` (stereo not shown) [compound 43, N-[2-(3-fluorophenyl)-2-hydroxyethyl]-2-nitro-N'-[3-(3-piperidinomethylphenoxy)propyl]-1,1-ethenediamine], the inhibition in vivo at 1 mg/kg with gastric acid secretion [2] came out at 51%.

As to `Cc1ccccc1C(O)CNC(=C[N+](=O)[O-])NCCCOc1cccc(CN2CCCCC2)c1` (stereo not shown) [compound 44, N-[2-hydroxy-2-(2-methylphenyl)ethyl]-2-nitro-N'-[3-(3-piperidinomethylphenoxy)propyl]-1,1-ethenediamine], the inhibition in vivo at 1 mg/kg with gastric acid secretion [2] came out at 75%.
